Assay results from patent publication US20130072424A1, “COMPOUNDS AND METHODS FOR PEPTIDE RIBONUCLEIC ACID CONDENSATE PARTICLES FOR RNA THERAPEUTICS” (MARINA BIOTECH, INC., priority 2005, published 2013).
Ends that are not written are not given here.

Key:
[1] = test system: primary mouse tail fibroblast (MTF) cells; experiment: Peptide cell-uptake assay (FITC-labeled peptide, flow cytometry); format: cell-based; settings: for Peptide FITC MFI: relative values
Procedure: The efficacy of the full-length and truncated forms of polypeptide PN73 to enter cells was tested in vitro by a cell-uptake assay with primary mouse tail fibroblast (MTF) cells. The number of cells in culture that receive the FITC-labeled peptide was measured by flow cytometry. The percentage peptide cell-uptake was expressed relative to the total number of cells present in the culture. In addition, the Mean Fluorescence Intensity (MFI) was used to evaluate the quantity of FITC-labeled peptide found within cells. MFI directly correlates with the amount of FITC-labeled peptide within the cell: higher relative MFI value correlates with a greater amount of intracellular FITC-labeled peptides. Peptides were evaluated at 0.63 μM, 2.5 μM and 10 μM concentrations; PN768 was tested at 2 μM, 10 μM and 50 μM. […]

[2] = test system: mouse tail fibroblast (MTF) cells; experiment: siRNA cell-uptake assay and MFI (Cy5-conjugated siRNA, flow cytometry), Examples 14-16; format: cell-based
Procedure: As described above, the cell-uptake assay determines the number of cells that receive Cy5-conjugated siRNA when complexed with a peptide. siRNA cell-uptake was assessed by flow cytometry (refer to Example 2 for details). Uptake was expressed as a percentage calculated by dividing the number of cells containing Cy5-conjugated siRNA by the total number of transfected and untransfected cells in culture. Mean Fluorescence Intensity (MFI) was measured by flow cytometry and determined the amount of Cy5-conjugated siRNA found within cells. The MFI value directly correlates with the amount of Cy5-conjugated siRNA within the cell, thus, a higher MFI value indicates a greater number of Cy5-conjugated siRNA within the cells.
The siRNA cell-uptake assay and MFI measurements were performed as described previously in Examples 2 and 3. […]

in vitro = settings: mouse, mouse tail fibroblast (MTF) cells
Procedure: Fluorescence activated cell sorting (FACS) analysis were performed using Beckman Coulter FC500 cell analyzer (Fullerton, Calif.). The instrument was adjusted according to the fluorescence probes used (FAM or Cy5 for siRNA and FITC and PE for CD14). Propidium iodide (Fluka, St Louis) and AnnexinV (R&D systems, Minneapolis) were used as indicators for cell viability and cytotoxicity. A brief step-by-step protocol is detailed below. • (a) After exposure to the complex of siRNA/peptide, cells were incubated for at least 3 hours. • (b) Wash cells with 200 μl PBS. • (c) Detach cells with 15 μl TE, incubate at 370 C. • (d) Re-suspend cells in five wells with 30 μl FACS solution (PBS with 0.5% BSA, and 0.1% sodium Azide). • (e) Combine all five wells into a tube. • (f) Add PI (Propidium iodide) 5 μl into each tube. • (g) Analyze the cells with fluorescence activated cell sorting (FCAS) according to manufacturer's instructions.
For siRNA uptake analysis, cells were washed with PBS, treated with trypsin (attached cells only), and then analyzed by flow cytometry. […] In order to differentiate the cellular uptake from the membrane insertion of fluorescence labeled siRNA, trypan blue was used to quench the fluorescence on the cell membrane surface.
FITC-tagged peptides were diluted in Opti-MEM® media (Invitrogen) for about 5 minutes at room temperature and then added to cells. Cells were transfected for 3 hours at and washed with PBS, treated with trypsin, and then analyzed by flow cytometry. Cell viability was determined as above. Cellular uptake was distinguished from the membrane insertion using trypan blue to quench any fluorescence on the cell membrane surface.

[3] = PN73 mutant series, peptide 0.63 μM
[4] = PN73 mutant series, peptide 1.25 μM
[5] = PN73 mutant series, peptide 2.5 μM
[6] = PN73 mutant series, peptide 5 μM

Molecule | % Peptide Cell-Uptake ([1]; peptide 10 μM) | Peptide FITC MFI ([1]; peptide 10 μM) | % siRNA Cell-Uptake [2, 3] [%] | siRNA Cy5 MFI [2, 3] | % siRNA Cell-Uptake [2, 4] [%] | siRNA Cy5 MFI [2, 4] | % siRNA Cell-Uptake [2, 5] [%] | siRNA Cy5 MFI [2, 5] | % siRNA Cell-Uptake [2, 6] [%] | siRNA Cy5 MFI [2, 6] | viability at 0.63 µM (in vitro) [%] | viability at 1.25 µM (in vitro) [%] | viability at 2.5 µM (in vitro) [%] | viability at 5 µM (in vitro) [%] | further results
KVLKQ-GK[EPSILON-5CFG-amide [PN768] |  |  |  |  |  |  |  |  |  |  |  |  |  |  | % Peptide Cell-Uptake ([1]; peptide 50 µM): 91 (50 µM) %; Peptide FITC MFI ([1]; peptide 50 μM): 9 (50 μM)
YKVLKQ-GK[EPSILON-5CFG-amide [PN651] | 90 (10 μM) % | 5 (10 μM) |  |  |  |  |  |  |  |  |  |  |  |  | % siRNA Cell-Uptake ([2]; no peptide concentration printed): 0%; siRNA Cy5 MFI ([2]; peptide .65 μM, relative values): 3 (.65 μM)
CC(C)C[C@H](NC(=O)[C@@H](NC(=O)[C@H](CCCCN)NC(=O)[C@H](Cc1ccc(O)cc1)NC(=O)[C@@H](NC(=O)[C@H](Cc1ccc(O)cc1)NC(=O)[C@@H](NC(=O)[C@H](CO)NC(=O)[C@H](Cc1ccc(O)cc1)NC(=O)[C@H](CO)NC(=O)[C@H](Cc1ccccc1)NC(=O)[C@H](CCCCN)NC(=O)[C@H](CCCNC(=N)N)NC(=O)[C@H](CO)NC(=O)[C@H](CCCNC(=N)N)NC(=O)[C@H](CCCCN)NC(=O)[C@H](CCCNC(=N)N)NC(=O)[C@H](CCCCN)NC(=O)[C@H](CCCCN)NC(=O)CNC(=O)[C@H](CC(=O)O)NC(=O)[C@H](CCCCN)NC(=O)[C@H](CCCCN)NC(=O)[C@H](CCC(N)=O)NC(=O)[C@H](C)NC(=O)[C@H](CCCCN)NC(=O)[C@@H](NC(=O)[C@@H](NC(=O)[C@H](C)NC(=O)[C@H](CCCCN)NC(=O)[C@H](CCCCN)NC(=O)[C@H](CO)NC(=O)CNC(=O)[C@@H](N)CCCCN)C(C)C)[C@@H](C)O)C(C)C)C(C)C)C(C)C)C(=O)N[C@@H](CCCCN)C(=O)N[C@@H](CCC(N)=O)C(N)=O [PN646] |  |  | 67 | 4 | 70 | 10 | 73 | 24 | 88 | 24 | 81 | 85 | 87 | 92 | 
KGSFKAVTKAQKKDGKKRKRSFKFSYSVYVYKVLKQ-NH2 [PN647] |  |  | 71 | 13 | 74 | 34 | 83 | 39 | 85 | 41 | 85 | 83 | 88 | 87 | 
VYVYKVLKQ-GK[EPSILON-5CFG-amide (VYVYKVLKQG-{K(5CF)-Gly-NH2}) [PN652] | 86 (10 μM) % | 5 (10 μM) |  |  |  |  |  |  |  |  |  |  |  |  | % siRNA Cell-Uptake ([2]; peptide 10 μM): 1.8 (10 μM) %; siRNA Cy5 MFI ([2]; peptide 10 μM, relative values): 5 (10 μM)
